Experimental data as given in patent publication US5126258A (priority 1988, dated 1992).
≈ marks a conversion by molar mass, not a printed value.

Tests used:
[1] = Chemical stability
[2] = tested on: monoclonal antibody P3 6D4; test: Kinetics and inhibition of catalytic ester hydrolysis by monoclonal antibody P3 6D4, spectrophotometric at 245 nm; assay type: biochemical, mouse
Method: FIG. 4 illustrates a Lineweaver-Burk plot for the hydrolysis of Compound 7 by anti-Compound 4 monoclonal antibody from hybridoma P3 6D4. Velocities were determined spectrophotometrically by measuring initial rates during the first linear portion of the reaction as described with reference to Table 2. The substrate concentrations were corrected for amounts consumed during initial equilibration. ( ) No inhibitor present. ( ) Inhibited by 50 nM phosphonate (Compound 3). ( ) Inhibited by 100 nM phosphonate (Compound 3).
(§1) In particular, an exemplary monoclonal receptor was produced by the standard hybridoma technology of Kohler et al., Nature, 256, 495 (1975). Specifically, female 129G1X^+ mice were immunized by intraperitoneal injection with an inoculum of 100 micrograms of conjugate (e.g., Compound 4i bound to KLH) in 300 microliters of a 1:1 mixture of phosphate buffered saline (PBS) pH 7.4 and complete Freund's adjuvant. Two weeks later, the mice were again injected in a like manner with 50 micrograms of the foregoing conjugate in 300 microliters of a 1:1 mixture of PBS (pH 7.4) and 10 mg/ml alum. After an additional eight weeks, the mice were immunized intravenously with 50 micrograms of the conjugate in 200 microliters of PBS (pH 7.4). The spleens were removed from the mice 4 days later, and the spleen cells were fused to myeloma cells.
Reaction kinetics were measured spectrophotometrically by following the absorption change at 245 nanometers. […] Kinetic parameters obtained with these substrates are shown in Table 2 along with the inhibition constants obtained with phosphonate (Compound 3). Under these conditions, the acceleration above the background rate is about 960-fold for Compound 7 and about 200-fold for Compound 8 (corrected for the background hydrolysis rate).
*The kinetic parameters shown in Table 2 are for the hydrolysis of esters
(Compounds 7 and 8) by monoclonal antibody P3 6D4. A PerkinElmer lambda 4
spectrophotometer, equipped with thermostatted cell holder, was used to
measure absorption changes at 245 nm. Cells containing the substrate at
concentrations of 0.5 to 50 micromolar in phosphate buffer (50 mM, pH 8.0
were preequilibrated at 25 degrees C. The concentration of active IgG in
stock solution was found by reacting with the coumarin ester (Compound 5)
and measuring the yield of hydroxycoumarin by fluorescence. The kinetic
run was initiated by addition of an aliquot of the antibody stock solutio
(in 50 mM phosphate buffer, pH 8.0) calculated to give 100 nM IgG. The
mixture was allowed to equilibrate for 2 to 3 minutes and the rate was
then measured during the subsequent 10 minutes. The absorption change for
complete hydrolysis was determined by treatment with esterase. Kinetic
parameters were obtained from L ineweaverBurk plots (see FIG. 4).
Inhibition constants were determined from a plot of the slopes with at
least four inhibitor concentrations of Compound 3. The data were analyzed

[3] = tested on: hog liver esterase; assay type: biochemical; conditions: pig, 5 µM, pH 8
Method: (§2) The lack of spectroscopic distinction between such esters and their hydrolysis products recommended a chromatographic analysis of the process. Referring to FIG. 3, a mixture of Compound 7 (5 uM) and the monoclonal antibody from hybridoma P3 6D4 (0.1 uM) in phosphate buffer (50 mM, pH 8.0) was analyzed over time by high performance liquid chromatography (HPLC). The accelerated hydrolysis of the ester was apparent from the decrease of its peak and the concurrent increase in two new peaks that correspond with the expected products. Under these conditions, the ester is completely consumed in 60-80 minutes during which time the background rate accounts for about 12 to 16 percent hydrolysis. The chromatographic profile is the same as that produced by treatment with hog liver esterase.
(§3) *Hydrolysis of carboxylic esters by monoclonal antibody (from hybridoma P
(§4) 6D4) and by hog liver esterase (Sigma Chemical Co., St. Louis, MO, EC
(§5) 3.1.1.1) determined by HPLC on an analytical RPC18 column (Vydac 218TP54)
(§6) with isocratic elution [acetonitrile: water plus 0.1 percent
(§7) trifluoroacetic acid; (35:65)] at a flow rate of 1.0 ml/min and the
(§8) detector set at 245 nm. The initial substrate concentration was 5
(§9) micromolar and that the internal standard (acetophenone) was 10 microm
(§10) olar in 50 mM phosphate buffer at pH 8.0. The retention times (minutes)
(§11) were as follows: acetophenone, 5.0; Compound 7, 8.3; Compound 8, 6.7;
(§12) Compound 9, 4.1; Compound 10, 11.1 (40 percent acetonitrile elution);
(§13) Compound 11, 8.2. The antibody concentration was 15 micrograms/ml (0.1
(§14) micromolar) and that of esterase was 5.5 micrograms/ml. The reaction
(§15) mixtures were kept at 25 degrees C. and aliquots were analyzed at
(§16) intervals of 2 to 20 minutes. Three or more determinations were used to
(§17) plot a curve from which the halflife of the reaction is estimated (see

[4] = Solubility; assay type: physicochemical; conditions: aqueous buffer, read-out: concentration above which solutions become slightly turbid
[5] = Spontaneous (uncatalyzed, background) hydrolysis; assay type: physicochemical; conditions: spectrophotometric at 245 nm, initial rates at five ester concentrations; figure = k × 10^5
Method: The practical range of pH for the assay is limited by the rapid spontaneous rate of hydrolysis of an ester Compound 5 above pH 8.0. Initially, the ester was used at a concentration that was about four-fold greater than that of the protein, and the mixture was incubated at pH 7.2 for 10 minutes. Any change in fluorescence above background was noted.
as §2
^c The rate constants were determined spectrophotometrically (at 245
nm) by measuring initial rates at five concentrations of ester.
^1 Preliminary initial hydrolyses shown as the percentage of admixed
reactant ligand consumed for catalyzed and spontaneous hydrolyses. "--" =
No hydrolysis observed. "NT" = Not tried. All reactions were carried out
at pH 8.0 in a 50 mM phosphate buffer unless otherwise noted. Hydrolytic
percentages were determined by HPLC using a Hitachi model 655A12 liquid
chromatograph with a C18 Vydac 201TP54 column, except as noted below.
Mixtures of acetonitrile a nd water containing 0.1 percent trichloroaceti
acid [28:72-50:50 (v/v)] were used as elutant. Hydrolyses of Compounds 5
and 20 were assayed using fluorescence data.
^5 Spontaneous hydrolytic percentages for the time period indicated.
(§18) Reaction kinetics were studied using three reactant ligands as substrates for monoclonal receptors 37G2 and 22F5. Data from initial rates were consistent with Michaelis-Menten reaction mechanism for a usual enzyme-substrate system. Initial rates were followed using at 271 nm using a U.V.-visible spectorphotometer for Compound 17, and a fluorescence spectrometer for Compounds 5 and 20, using an excitation wavelength of 355 nm and an emission wavelength of 455 nm for both compounds.

[6] = tested on: monoclonal antibody P3 6D4; test: Ester hydrolysis by monoclonal antibody P3 6D4, HPLC; assay type: biochemical, mouse; conditions: for accelerated hydrolysis by P3 6D4 (substrate acceptance): pH 8.0
Method: FIG. 3 illustrates the rate of hydrolysis of a carboxylic ester (Compound 7) determined by HPLC under the conditions described in Table 1 (50 mM phosphate buffer at pH 8.0 and 23 degrees C). ( ) Uncatalyzed (background)rate of hydrolysis. (.quadrature.) Effect of 0.5 micromolar non-specific monoclonal IgG. ( ) 0.1 Micromolar anti-Compound 4 monoclonal antibody from hybridoma P3 6D4. The superimposed curve represents a theoretical exponential decay which fits the data points.
as §1, §2, §3, §4, §5, §6, §7, §8, §9, §10, §11, §12, §13, §14, §15, §16, §17

[7] = tested on: P2 50D8; test: Catalytic hydrolysis by receptor P2 50D8; assay type: biochemical, mouse
Method: (§19) Two further catalytic monoclonal receptors were similarly prepared by another fusion using Compound 2i linked to an antigenic carrier as immunogen. Those two catalytic receptor molecules and their hybridomas were designated "P2 50D8" and "P2 57G4".
(§20) In one study, twenty-eight monoclonal anti-hapten antibodies to phosphonate 2i from two separate fusion experiments were assayed. […] Antibodies to Compound 4i as hapten were assayed in the same manner. Twelve gamma-globulins were screened as described above. Compound 5 is homologous only in the acyl portion of this larger hapten; however, all but three of these cross-reacted with smaller phosphonate 2 in an ELISA assay as described herein. For two of these there was observed a fluorescence change, occurring in the first 5 minutes of incubation, which corresponds to about 50 percent of that for complete hydrolysis. The background rate of hydrolysis was reestablished after this initial reaction leveled off.

[8] = tested on: P2 57G4; test: Catalytic hydrolysis by receptor P2 57G4; assay type: biochemical, mouse
Method: as §19, §20

[9] = target: Monoclonal Receptor 22F5; test: Kinetics of hydrolysis by receptor 22F5; assay type: biochemical, mouse; conditions: figure = Ki × 10^7
Description: as §18
Lineweaver-Burke plots for the catalyzed hydrolysis of Compounds 17, 5 and 20 obtained in the presence and absence of Compound 12i as inhibitor were prepared as discussed for FIG. 4. In particular, Compound 17 was present at concentrations of 1-16 uM with inhibitor concentrations of 100 and 300 nanomolar (nM). Compound 5 was present at concentrations of 1-10 uM with inhibitor concentrations of 100 and 200 nM. Compound 20 was present at concentrations of 2-20 uM with inhibitor concentrations of 25 and 100 nM.
*Fluorescence assays using Compounds 20 and 5 were carried out in a
PerkinElmer fluorescence spectrophotometer (moded LS5; Oakbrook, IL) usin
200 nanomolar receptor (based on a molecular weight of 150,000 daltons) i
(§21) 50 mM phosphate buffer at a pH value of 8.0. The reactant ligand was
(§22) dissolved in dioxane and admixed in the amounts discussed above. Two
(§23) milliliters of reaction solution were utilized as was a dioxane
concentration of 2 percent by volume. […]

[10] = target: Monoclonal Receptor 37G2; test: Kinetics of hydrolysis by receptor 37G2; assay type: biochemical, mouse; conditions: inhibitor Compound 12i (100 and 300 nM), substrate Compound 17; figure = Ki × 10^7
Description: as §18
Lineweaver-Burke plots for the catalyzed hydrolysis of Compounds 17, 5 and 20 obtained in the presence and absence of Compound 12i as inhibitor were prepared as discussed for FIG. 4. In particular, Compound 17 was present at concentrations of 1-16 uM with inhibitor concentrations of 100 and 300 nanomolar (nM). Compound 5 was present at concentrations of 1-10 uM with inhibitor concentrations of 100 and 200 nM. Compound 20 was present at concentrations of 2-20 uM with inhibitor concentrations of 25 and 100 nM. […]
as §21, §22, §23
concentration of 2 percent by volume. Assays with Compound 17 as reac tan
ligand utilized 500 nanomolar receptor (based on a molecular weight of
150,000 daltons) in the above buffer, using the reactant ligand dissolved
in dioxane and a total dioxane concentration of 2 percent by volume.

With `COC(=O)c1cccc(C(=O)NCc2cc(NC(=O)CCCCC(=O)ON3C(=O)CCC3=O)ccc2OP(=O)(O)Cc2ccc(NC(=O)C(F)(F)F)cc2)n1` [Compound 4i] the “hydrolytic stability (NHS group)” value ([1]; store at zero degrees C in a dessicator) was “prone to hydrolysis”.

Work on `CC(=O)Nc1ccc(OC(=O)Cc2ccc(NC(=O)C(F)(F)F)cc2)cc1` [Compound 7] yielded a Km ([2]; 50 mM phosphate pH 8.0, 25 C, 100 nM IgG, figure = Km × 10^6) of 1.9 µM, a Vmax ([2]; 50 mM phosphate pH 8.0, 25 C, 100 nM IgG, figure = Vmax × 10^9) of 0.132 µM/min and a kcat ([2]; 50 mM phosphate pH 8.0, 25 C, printed figure = kcat × 10^2) of 0.027 s⁻¹. For the same molecule, the kcat/kuncat ([2]; pH 8.0) was 960, the “acceleration above the background rate” value ([2]; pH 8.0, corrected for background hydrolysis rate) was “about 960 fold” and the “turn over of receptor with substrate” value ([2]; without noticeable inactivation) was “several hundred fold”. For the same molecule, the “t1/2 Esterase” value [3] was 4 min, the solubility [4] was 15 µM (≈ 5.7 µg/mL) and the kuncat [5] was 280000 s⁻¹. The “time to complete consumption of ester” value ([6]; 5 uM Compound 7, 0.1 uM antibody P3 6D4, 50 mM phosphate pH 8.0) was 60 to 80 min and the “t1/2 Antibody (P3 6D4)” value ([6]; 5 micromolar substrate, 0.1 micromolar antibody, 50 mM phosphate pH 8.0, 25 C) was 16 min.

With `CC(=O)Nc1ccc(CC(=O)Oc2ccc(NC(C)=O)cc2)cc1` [Compound 9] the “t1/2 Esterase” value [3] was 4 min, the kuncat [5] was 25000 s⁻¹ and the “accelerated hydrolysis by P3 6D4 (substrate acceptance)” value [6] was “not accepted as substrates”. For the same molecule, the “catalytic hydrolysis by P2 50D8” value [7] was “capable of catalytically hydrolyzing” and the “catalytic hydrolysis by P2 57G4” value [8] was “capable of catalytically hydrolyzing”.

In the case of `CC(=O)Nc1ccc(CC(=O)Oc2ccc(NC(=O)C(F)(F)F)cc2)cc1` [Compound 11], the “t1/2 Esterase” value [3] is reported as 5 min, the kuncat [5] is reported as 610000 s⁻¹ and the “accelerated hydrolysis by P3 6D4 (substrate acceptance)” value [6] is reported as “not manifested by the accelerated hydrolysis”. For the same molecule, the “catalytic hydrolysis by P2 50D8” value [7] was “capable of catalytically hydrolyzing” and the “catalytic hydrolysis by P2 57G4” value [8] was “capable of catalytically hydrolyzing”.

In the case of `Cc1ccc2cccc(NP(=O)(O)Cc3ccc(NC(=O)C(F)(F)F)cc3)c2n1` [Compound 12i], the Ki ([9]; inhibitor Compound 12i (25 and 100 nM), substrate Compound 20) is reported as 70 nM, the Ki ([9]; inhibitor Compound 12i (100 and 200 nM), substrate Compound 5) is reported as 110 nM and the stability ([1]; pH 3.5-7.3, room temperature) is reported as “at least 11 days”. The Ki [10] was 140 nM.

With `Cc1ccc2cccc(NP(=O)(O)Cc3ccc(NC(=O)CCCC(=O)ON4C(=O)CCC4=O)cc3)c2n1` [Compound 13] the decomposition ([1]; pH 3.5 and 6.2) was “No signs of decomposition” and the “stability at zero degrees C” value ([1]; zero degrees C, over 5 days) was “stable”.
